These results are taken from paper doi:10.1101/2024.12.04.625365v1 (biorxiv, 2024).

What is called Kd is the concentration at which binding is half-saturated. One may read the IC50 as the concentration that gives 50% inhibition.

In one assay the target is recombinant hAQP4 (AQP4) (Homo sapiens, UniProt P55087). Kind of assay: biochemical.
In assay [1] the target is T1, A2AR (human A2A receptor) (Homo sapiens, UniProt P29274). Kind of assay: displacement of [3H]ZM-241385 from crude Pichia membranes. In kind it is binding. Background: Loss of bound radioactivity is the signal in a displacement assay; it reports binding, not function.
The target of assay [2] is T1, A2AR (human A2A receptor). The assay can be described thus: intrinsic tryptophan fluorescence quenching. In kind it is binding.

T1 sequence (P29274 whole entry): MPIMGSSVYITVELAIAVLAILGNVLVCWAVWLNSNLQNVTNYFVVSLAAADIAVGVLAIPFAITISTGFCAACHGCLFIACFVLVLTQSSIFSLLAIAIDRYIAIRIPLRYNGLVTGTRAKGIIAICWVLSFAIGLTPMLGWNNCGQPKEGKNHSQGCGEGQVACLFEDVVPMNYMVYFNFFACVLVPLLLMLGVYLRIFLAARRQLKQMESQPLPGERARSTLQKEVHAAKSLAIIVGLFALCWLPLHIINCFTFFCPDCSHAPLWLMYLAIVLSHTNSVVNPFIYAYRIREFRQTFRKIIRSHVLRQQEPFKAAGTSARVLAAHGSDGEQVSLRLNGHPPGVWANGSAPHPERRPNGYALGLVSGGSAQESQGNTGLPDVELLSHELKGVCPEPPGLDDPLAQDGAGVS
recombinant hAQP4 (AQP4), sequence (P55087 whole entry): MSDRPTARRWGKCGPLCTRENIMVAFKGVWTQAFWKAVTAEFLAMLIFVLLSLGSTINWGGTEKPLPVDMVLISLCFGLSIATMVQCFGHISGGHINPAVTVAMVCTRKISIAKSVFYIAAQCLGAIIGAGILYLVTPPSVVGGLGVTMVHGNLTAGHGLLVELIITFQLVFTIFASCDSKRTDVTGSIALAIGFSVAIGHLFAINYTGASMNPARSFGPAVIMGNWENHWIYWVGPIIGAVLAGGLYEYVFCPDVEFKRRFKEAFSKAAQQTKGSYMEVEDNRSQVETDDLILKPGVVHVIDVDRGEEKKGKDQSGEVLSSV

Consider `O=C(Nc1cc(C(F)(F)F)cc(C(F)(F)F)c1)c1cc(Cl)ccc1O` [AER-270, N-(3,5-bis(trifluoromethyl)phenyl)-5-chloro-2-hydroxybenzamide], for which, on recombinant hAQP4 (AQP4), the Kd amounted to 17 ± 3.1 µM.
Regarding `O=C(Nc1nncs1)c1cccnc1` [TGN-020, N-1,3,4-thiadiazol-2-yl-3-pyridinecarboxamide], in assay [1], the IC50 is 20 µM. Further, the Kd in assay [2] was found to be 54 µM.
